The compounds below were run on metabotropic glutamate receptors (assay: Displacement of 1S,3R-ACPD-sensitive [3H]glutamate binding to rat brain cell membranes). Conditions: crude membranes of rat forebrain; 10 µM compound.
Experimental: The binding of [^3H]glutamate was conducted with crude membranes of rat forebrain as described by Schoepp and True. Schoepp and True, Neuroscience Lett., 145, 100-104 (1992) and True and Schoepp, Society for Neuroscience Abstracts, 19, 470 (1993). IC50 values for the inhibition of [^3H]glutamate binding, or the percent displacement of [^3H]glutamate binding at a 10 µM concentration, of the formula I compound, is shown in Table II.
For CC(C)C(N)(C(=O)O)[C@H]1C[C@@H]1C(=O)O (mixture of isomers) [Example 14, 2SR- and 2RS-2-amino-2-(1SR,2SR-2-carboxycyclopropan-1-yl)-3-methylbutanoic acid], the “ACPD-Sensitive [^3H]Glutamate Binding % Displacement at 10 µM” value was “(17%)”.

Same assay, conditions: crude membranes of rat forebrain; inhibition of [3H]glutamate binding
Compound “2R-2- amino-2-(1R,2R-2-carboxycyclopropan-1-yl)-3-(dibenzopyran-4-yl)propanoic acid [Example 74]” has an IC50 of 4200 nM. With CCCCCCCCC(N)(C(=O)O)[C@H]1C[C@@H]1C(=O)O (mixture of isomers) [Example 13, 2SR- and 2RS-2-amino-2-(1SR,2SR-2-carboxycyclopropan-1-yl)decanoic acid] the IC50 was 1700 nM. CC(C)CC(N)(C(=O)O)[C@H]1C[C@@H]1C(=O)O (mixture of isomers) [Example 15, 2SR- and 2RS-2-amino-2-(1SR,2SR-2-carboxycyclopropan-1-yl)-4-methylpentanoic acid] gave an IC50 of 700 nM. CC(C)CCC(N)(C(=O)O)[C@H]1C[C@@H]1C(=O)O (mixture of isomers) [Example 16, 2SR- and 2RS-2-amino-2-(1SR,2SR-2-carboxycyclopropan-1-yl)-5-methylhexanoic acid] was tested, and the IC50 was 1100 nM. Work on CC(C)CCCC(N)(C(=O)O)[C@H]1C[C@@H]1C(=O)O (mixture of isomers) [Example 17, 2SR- and 2RS-2-amino-2-(1SR, 2SR-2-carboxycyclopropan-1-yl)-6-methylheptanoic acid] yielded an IC50 of 850 nM. Compound NC(CCc1cccc2ccccc12)(C(=O)O)[C@H]1C[C@@H]1C(=O)O (mixture of isomers) [Example 18, 2SR- and 2RS-2-amino-2-(1SR,2SR-2-carboxycyclopropan-1-yl)-4-(naphth-1-yl)butanoic acid] has an IC50 of 140 nM. For NC(CCc1ccc2ccccc2c1)(C(=O)O)[C@H]1C[C@@H]1C(=O)O (mixture of isomers) [Example 19, 2SR- and 2RS-2-amino-2-(1SR,2SR-2-carboxycyclopropan-1-yl)-4-(naphth-2-yl)butanoic acid], the IC50 was 2800 nM. Cc1ccccc1CCC(N)(C(=O)O)[C@H]1C[C@@H]1C(=O)O (mixture of isomers) [Example 20, 2SR- and 2RS-2-amino-2-(1SR,2SR-2-carboxycyclopropan-1-yl)-4-(2-methylphenyl)butanoic acid] gave an IC50 of 570 nM. For Cc1cccc(CCC(N)(C(=O)O)[C@H]2C[C@@H]2C(=O)O)c1 (mixture of isomers) [Example 21, 2SR- and 2RS-2-amino-2-(1SR,2SR-2-carboxycyclopropan-1-yl)-4-(3-methylphenyl)butanoic acid], the IC50 was 38 nM. Work on Cc1ccc(CCC(N)(C(=O)O)[C@H]2C[C@@H]2C(=O)O)cc1 (mixture of isomers) [Example 22, 2SR- and 2RS-2-amino-2-(1SR,2SR-2-carboxycyclopropan-1-yl)-4-(4-methylphenyl)butanoic acid] yielded an IC50 of 590 nM. NC(CCc1ccccc1Cl)(C(=O)O)[C@H]1C[C@@H]1C(=O)O (mixture of isomers) [Example 23, 2SR- and 2RS-2-amino-2-(1SR,2SR-2-carboxycyclopropan-1-yl)-4-(2-chlorophenyl)butanoic acid] gave an IC50 of 260 nM. NC(CCc1cccc(Cl)c1)(C(=O)O)[C@H]1C[C@@H]1C(=O)O (mixture of isomers) [Example 24, 2SR- and 2RS-2-amino-2-(1SR,2SR-2-carboxycyclopropan-1-yl)-4-(3-chlorophenyl)butanoic acid] showed an IC50 of 110 nM. NC(CCc1ccc(-c2ccccc2)cc1)(C(=O)O)[C@H]1C[C@@H]1C(=O)O (mixture of isomers) [Example 49, 2SR- and 2RS-2-amino-2-(1SR,2SR-2-carboxycyclopropan-1-yl)-4-(4-biphenyl)butanoic acid] showed an IC50 of 1500 nM. NC(CCc1c(F)c(F)c(F)c(F)c1F)(C(=O)O)[C@H]1C[C@@H]1C(=O)O (mixture of isomers) [Example 50, 2SR- and 2RS-2-amino-2-(1SR,2SR-2-carboxycyclopropan-1-yl)-4-(2,3,4,5,6-pentafluorophenyl)butanoic acid] gave an IC50 of 370 nM. Work on COc1cccc(CCC(N)(C(=O)O)[C@H]2C[C@@H]2C(=O)O)c1OC (mixture of isomers) [Example 52, 2SR- and 2RS-2-amino-2-(1SR,2SR-2-carboxycyclopropan-1-yl)-4-(2,3-dimethoxyphenyl)butanoic acid] yielded an IC50 of 4900 nM. With COc1cc(CCC(N)(C(=O)O)[C@H]2C[C@@H]2C(=O)O)cc(OC)c1 (mixture of isomers) [Example 53, 2SR- and 2RS-2-amino-2-(1SR,2SR-2-carboxycyclopropan-1-yl)-4-(3,5-dimethoxyphenyl)butanoic acid] the IC50 was 95 nM. NC(CCc1ccc(F)cc1)(C(=O)O)[C@H]1C[C@@H]1C(=O)O (mixture of isomers) [Example 54, 2SR- and 2RS-2-amino-2-(1SR,2SR-2-carboxycyclopropan-1-yl)-4-(4-fluorophenyl)butanoic acid] was tested, and the IC50 was 23 nM. Work on NC(CCc1ccccc1F)(C(=O)O)[C@H]1C[C@@H]1C(=O)O (mixture of isomers) [Example 55, 2SR- and 2RS-2-amino-2-(1SR,2SR-2-carboxycyclopropan-1-yl)-4-(2-fluorophenyl)butanoic acid] yielded an IC50 of 120 nM. In the case of NC(CCc1ccc(C(F)(F)F)cc1)(C(=O)O)[C@H]1C[C@@H]1C(=O)O (mixture of isomers) [Example 56, 2SR- and 2RS-2-amino-2-(1SR,2SR-2-carboxycyclopropan-1-yl)-4-(4-(trifluoromethyl)phenyl)butanoic acid], the IC50 is reported as 610 nM. Work on NC(CCc1ccccc1C(F)(F)F)(C(=O)O)[C@H]1C[C@@H]1C(=O)O (mixture of isomers) [Example 57, 2SR- and 2RS-2-amino-2-(1SR,2SR-2-carboxycyclopropan-1-yl)-4-(2-(trifluoromethyl)phenyl)butanoic acid] yielded an IC50 of 480 nM. Work on NC(CCc1cccs1)(C(=O)O)[C@H]1C[C@@H]1C(=O)O (mixture of isomers) [Example 58, 2SR- and 2RS-2-amino-2-(1SR,2SR-2-carboxycyclopropan-1-yl)-4-(2-thienyl)butanoic acid] yielded an IC50 of 580 nM. Compound NC(CCc1ccsc1)(C(=O)O)[C@H]1C[C@@H]1C(=O)O (mixture of isomers) [Example 59, 2SR- and 2RS-2-amino-2-(1SR,2SR-2-carboxycyclopropan-1-yl)-4-(3-thienyl)butanoic acid] has an IC50 of 210 nM. NC(CCc1cccc(Oc2ccccc2)c1)(C(=O)O)[C@H]1C[C@@H]1C(=O)O (mixture of isomers) [Example 60, 2SR- and 2RS-2-amino-2-(1SR,2SR-2-carboxycyclopropan-1-yl)-4-(3-phenoxyphenyl)butanoic acid] was tested, and the IC50 was 170 nM. Cn1cc(CCC(N)(C(=O)O)[C@H]2C[C@@H]2C(=O)O)c2ccccc21 (mixture of isomers) [Example 61, 2SR- and 2RS-2-amino-2-(1SR,2SR-2-carboxycyclopropan-1-yl)-4-(1-methylindol-3-yl)butanoic acid] was tested, and the IC50 was 280 nM. In the case of NC(CC1CCCCC1)(C(=O)O)[C@H]1C[C@@H]1C(=O)O (mixture of isomers) [Example 62, 2SR- and 2RS-2-amino-2-(1SR,2SR-2-carboxycyclopropan-1-yl)-3-cyclohexylpropanoic acid], the IC50 is reported as 230 nM. NC(CCc1cc(Cl)cc(Cl)c1)(C(=O)O)[C@H]1C[C@@H]1C(=O)O (mixture of isomers) [Example 75, 2SR- and 2RS-2-amino-2-(1SR,2SR-2carboxycyclopropan-1-yl)-4-(3,5-dichlorophenyl)butanoic acid] showed an IC50 of 25 nM. Compound NC(CCc1cccc(-c2ccccc2)c1)(C(=O)O)[C@H]1C[C@@H]1C(=O)O (mixture of isomers) [Example 76, 2SR- and 2RS-2-amino-2-(1SR,2SR-2-carboxycyclopropan-1-yl)-4-(3-biphenyl)butanoic acid] has an IC50 of 510 nM. NC(CCc1ccc(F)cc1F)(C(=O)O)[C@H]1C[C@@H]1C(=O)O (mixture of isomers) [Example 77, 2SR- and 2RS-2-amino-2-(1SR,2SR-2-carboxycyclopropan-1-yl)-4-(2,4-difluorophenyl)butanoic acid] showed an IC50 of 60 nM. For NC(CCc1ccc(F)c(F)c1)(C(=O)O)[C@H]1C[C@@H]1C(=O)O (mixture of isomers) [Example 78, 2SR- and 2RS-2-amino-2-(1SR,2SR-2-carboxycyclopropan-1-yl)-4-(3,4-difluorophenyl)butanoic acid], the IC50 was 37 nM. Work on NC(CCc1cccc(C(=O)O)c1)(C(=O)O)[C@H]1C[C@@H]1C(=O)O (mixture of isomers) [Example 79, 2SR- and 2RS-2-amino-2-(1SR,2SR-2-carboxycyclopropan-1-yl)-4-(3-carboxyphenyl)butanoic acid] yielded an IC50 of 49 nM. NC(CCc1ccc(C(=O)O)cc1)(C(=O)O)[C@H]1C[C@@H]1C(=O)O (mixture of isomers) [Example 80, 2SR- and 2RS-2-amino-2-(1SR,2SR-2-carboxycyclopropan-1-yl)-4-(4-carboxyphenyl)butanoic acid] gave an IC50 of 370 nM. Work on NC(CCc1ccc(Br)cc1)(C(=O)O)[C@H]1C[C@@H]1C(=O)O (mixture of isomers) [Example 82, 2SR- and 2RS-2-amino-2-(1SR,2SR-2-carboxycyclopropan-1-yl)-4-(4-bromophenyl)butanoic acid] yielded an IC50 of 680 nM. Work on NC(CCC1C2CCCC1CCC2)(C(=O)O)[C@H]1C[C@@H]1C(=O)O (mixture of isomers) [Example 83, 2SR- and 2RS-2-amino-2-(1SR,2SR-2-carboxycyclopropan-1-yl)-4-(9-bicyclo[3.3.1]nonanyl)butanoic acid] yielded an IC50 of 2600 nM. NC(CCc1ccccc1Oc1ccccc1)(C(=O)O)[C@H]1C[C@@H]1C(=O)O (mixture of isomers) [Example 84, 2SR- and 2RS-2-amino-2-(1SR,2SR-2-carboxycyclopropan-1-yl)-4-(2-phenoxyphenyl)butanoic acid] gave an IC50 of 360 nM.
